Holding throughout (format): biochemical
Experiment [1] addresses T1, human DPP-2 (Homo sapiens, UniProt Q9UHL4).
T1 construct: human DPP-2 covering amino acid 30-492; made in house; host or cells: insect cells (baculovirus expression system)
The experiment can be described thus: DPP-2 (dipeptidyl peptidase 2) IC50 assay, Nle-Pro-AMC fluorescence intensity. An excerpt:
(§1) For fluorescence intensity (FI) measurements with AMC as dye, an Ultra Evolution reader (TECAN, Maennedorf, Switzerland) was used. The instrument was equipped with a combination of a 350 nm (20 nm bandwidth) and a 500 nm (25 nm bandwidth) bandpath filter for fluorescence excitation and emission acquisition, respectively. To increase the signal:background ratio, an appropriate dichroic mirror was employed. All filters and the dichroic mirror were purchased from TECAN.
The data from the independent assay runs was averaged and plotted using program of Origin 7.5SR6 (OriginLab Corporation, Northampton, Mass., USA). Origin's built-in non-linear regression routine was used to fit the averaged data to the ‘logistics’ function y=A2+(A1−A2)/(1+(x/IC50)^p) (Equation 1) where y is the %-inhibition at the inhibitor concentration, x. […]
For the determination of IC50 values, the assays were performed at room temperature in 384-well plates. […] The effect of the compound on the enzymatic activity was obtained from the linear progress curves and determined from two readings, the first one taken directly after the addition of substrate (t=0 min) and the second one after 1 hour (t=60 min). The IC50 value was calculated from the plot of percentage of inhibition vs. inhibitor concentration using non-linear regression analysis software (XLfit, Vers. 4.0; ID Business Solution Ltd., Guildford, Surrey, UK). […]

In experiment [2] the target is T2, human DPP-IV (Homo sapiens, UniProt P27487).
T2 construct: human DPP-IV covering amino acid 39-766; made in house; host or cells: insect cells (baculovirus expression system)
The experiment can be described thus: DPP-IV (dipeptidyl peptidase IV) IC50 assay, Gly-Pro-AMC fluorescence intensity.
Excerpt: as §1
(§2) The data from the independent assay runs was averaged and plotted using program of Origin 7.5SR6 (OriginLab Corporation, Northampton, Mass., USA). Origin's built-in non-linear regression routine was used to fit the averaged data to the ‘logistics’ function y=A2+(A1−A2)/(1+(x/IC50)^p) (Equation 1) where y is the %-inhibition at the inhibitor concentration, x. A1 is the lowest inhibition value, i.e. 0%, and A2 the maximum inhibition value, i.e. 100%. The exponent, p, is the Hill coefficient. B. Determination of IC50 Values […]
(§3) For the determination of IC50 values, the assays were performed at room temperature in 384-well plates. All final assay volumes were 30 μl. Test compounds were dissolved in 90% (v/v) DMSO/water and diluted in water (containing 0.05% (w/v) CHAPS) to 3-times the desired assay concentration. For each assay, 10 μl water/CHAPS (±test compound) were added per well, followed by 10 μl protease solution (diluted with assay buffer; for final assay concentration cf. § Assay conditions). After 1 hour of incubation at room temperature, the reaction was started by addition of 10 μl substrate solution (for final concentrations cf. § Assay conditions). The eleven final compound concentrations were either 0.9 nM, 3 nM, 9 nM, 30 nM, 90 nM, 300 nM, 900 nM, 3 μM, 9 μM, 30 μM and 90 μM or 3 nM, 10 nM, 30 nM, 100 nM, 300 nM, 1 μM, 3 μM, 10 μM, 30 μM, 100 μM and 300 μM. The effect of the compound on the enzymatic activity was obtained from the linear progress curves and determined from two readings, the first one taken directly after the addition of substrate (t=0 min) and the second one after 1 hour (t=60 min). The IC50 value was calculated from the plot of percentage of inhibition vs. inhibitor concentration using non-linear regression analysis software (XLfit, Vers. 4.0; ID Business Solution Ltd., Guildford, Surrey, UK).
2.—DPP-IV (dipeptidyl peptidase IV) enzyme: human DPP-IV covering amino acid 39-766; expressed in and purified from insect cells (baculovirus expression system) substrate: Gly-Pro-AMC, purchased from Bachem (www.bachem.com), catalogue number I-1225 enzyme concentration: 0.01 nM substrate concentration: 10 μM assay buffer: 25 mM Tris, pH 7.4, 140 mM NaCl, 10 mM KCl, 0.05% (w/v) CHAPS

Experiment [3] deals with T3, endogenous human DPP-IV from plasma sample (Homo sapiens, UniProt P27487).
T3 construct: endogenous human DPP-IV from plasma sample, male donors; from tissue; host or cells: human blood plasma, male donors, diluted to 50% plasma content
The experiment can be described thus: human plasma DPP-IV IC50 assay, (H-Ala-Pro)2-Rh110 fluorescence intensity. The following applies: for IC50: 50% plasma.
Excerpt: FI measurements using a Rh110 dye were done with a Safire2 reader (TECAN, Maennedorf, Switzerland). The Safire2 is a monochomator-based instrument and wavelengths of 485 nm and 535 nm were taken for fluorescence excitation and emission acquisition, respectively. The bandwidths were set to 20 nm in both the excitation and the emission path.
as §2
as §3, with “The eleven final compound concentrations were either 0.9 nM, 3 nM, 9 nM, 30 nM, 90 nM, 300 nM, 900 nM, 3 μM, 9 μM, 30 μM and 90 μM or 3 nM, 10 nM, 30 nM, 100 nM, 300 nM, 1 μM, 3 μM, 10 μM, 30 μM, 100 μM and 300 μM.” left out, “UK). […]” for “UK).”

The target of experiment [4] is T4, human DPP-8 (Homo sapiens, UniProt Q6V1X1).
T4 construct: human DPP-8 covering amino acid 1-882; made in house; host or cells: insect cells (baculovirus expression system)
The experiment can be described thus: DPP-8 (dipeptidyl-peptidase 8) IC50 assay, Gly-Pro-AMC fluorescence intensity.
Excerpt: as §1, §2, §3
4.—DPP-8 (dipeptidyl-peptidase 8) enzyme: human DPP-8 covering amino acid 1-882; expressed in and purified from insect cells (baculovirus expression system) substrate: Gly-Pro-AMC, purchased from Bachem (www.bachem.com), catalogue number I-1225 enzyme concentration: 0.05 nM substrate concentration: 10 μM assay buffer: 25 mM Tris, pH 7.4, 140 mM NaCl, 10 mM KCl, 0.05% (w/v) CHAPS

Experiment [5] deals with T5, human DPP-9 (Homo sapiens, UniProt Q86TI2).
T5 construct: human DPP-9 covering amino acid 1-863; made in house; host or cells: Pichia pastoris
Kind of experiment: DPP-9 (dipeptidyl-peptidase 9) IC50 assay, Gly-Pro-AMC fluorescence intensity.
Excerpt: as §1, §2, §3
5.—DPP-9 (dipeptidyl-peptidase 9) enzyme: human DPP-9 covering amino acid 1-863; expressed in and purified from Pichia pastoris substrate: Gly-Pro-AMC, purchased from Bachem (www.bachem.com), catalogue number I-1225 enzyme concentration: 1 nM substrate concentration: 10 μM assay buffer: 25 mM Tris, pH 7.4, 140 mM NaCl, 10 mM KCl, 0.05% (w/v) CHAPS

In experiment [6] the target is T6, human FAP (Homo sapiens, UniProt Q12884).
T6 construct: human FAPa covering amino acid 27-760 excluding the cytoplasmic and transmebrane domains; made in house; host or cells: insect cells (baculovirus expression system)
T6 sequence (Q12884 27-760): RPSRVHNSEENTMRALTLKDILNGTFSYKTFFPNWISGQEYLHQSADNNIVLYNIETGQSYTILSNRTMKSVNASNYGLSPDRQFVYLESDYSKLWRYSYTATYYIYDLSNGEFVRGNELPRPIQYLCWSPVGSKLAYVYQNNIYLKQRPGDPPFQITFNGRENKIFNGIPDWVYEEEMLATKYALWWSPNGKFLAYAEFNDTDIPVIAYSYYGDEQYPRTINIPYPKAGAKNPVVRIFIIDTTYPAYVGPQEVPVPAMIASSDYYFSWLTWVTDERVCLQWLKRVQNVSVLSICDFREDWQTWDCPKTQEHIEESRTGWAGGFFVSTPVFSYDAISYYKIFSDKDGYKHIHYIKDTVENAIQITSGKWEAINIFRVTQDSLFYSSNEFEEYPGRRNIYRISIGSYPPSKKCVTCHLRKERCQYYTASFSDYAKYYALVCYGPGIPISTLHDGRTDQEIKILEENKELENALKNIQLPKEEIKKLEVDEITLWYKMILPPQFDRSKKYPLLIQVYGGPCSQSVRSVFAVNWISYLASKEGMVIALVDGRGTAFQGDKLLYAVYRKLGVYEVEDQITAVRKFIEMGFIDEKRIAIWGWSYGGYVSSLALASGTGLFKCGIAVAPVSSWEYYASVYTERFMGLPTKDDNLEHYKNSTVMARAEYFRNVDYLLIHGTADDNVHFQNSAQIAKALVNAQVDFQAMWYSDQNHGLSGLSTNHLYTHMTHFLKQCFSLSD
The experiment can be described thus: FAP (fibroblast activation protein, alpha) IC50 assay, Z-Gly-Pro-AMC fluorescence intensity.
Excerpt: as §1
The data from the independent assay runs was averaged and plotted using program of Origin 7.5SR6 (OriginLab Corporation, Northampton, Mass., USA). Origin's built-in non-linear regression routine was used to fit the averaged data to the ‘logistics’ function y=A2+(A1−A2)/(1+(x/IC50)^p) (Equation 1) where y is the %-inhibition at the inhibitor concentration, x. A1 is the lowest inhibition value, i.e. 0%, and A2 the maximum inhibition value, i.e. 100%. The exponent, p, is the Hill coefficient. B. Determination of IC50 Values
as §3, with “The eleven final compound concentrations were either 0.9 nM, 3 nM, 9 nM, 30 nM, 90 nM, 300 nM, 900 nM, 3 μM, 9 μM, 30 μM and 90 μM or 3 nM, 10 nM, 30 nM, 100 nM, 300 nM, 1 μM, 3 μM, 10 μM, 30 μM, 100 μM and 300 μM.” left out, “UK). […]” for “UK).”

Experiment [7] addresses T7, human PEP (Homo sapiens, UniProt P48147).
T7 construct: human PEP covering amino acid 1-710; made in house; host or cells: Pichia pastoris
T7 sequence (P48147 1-710): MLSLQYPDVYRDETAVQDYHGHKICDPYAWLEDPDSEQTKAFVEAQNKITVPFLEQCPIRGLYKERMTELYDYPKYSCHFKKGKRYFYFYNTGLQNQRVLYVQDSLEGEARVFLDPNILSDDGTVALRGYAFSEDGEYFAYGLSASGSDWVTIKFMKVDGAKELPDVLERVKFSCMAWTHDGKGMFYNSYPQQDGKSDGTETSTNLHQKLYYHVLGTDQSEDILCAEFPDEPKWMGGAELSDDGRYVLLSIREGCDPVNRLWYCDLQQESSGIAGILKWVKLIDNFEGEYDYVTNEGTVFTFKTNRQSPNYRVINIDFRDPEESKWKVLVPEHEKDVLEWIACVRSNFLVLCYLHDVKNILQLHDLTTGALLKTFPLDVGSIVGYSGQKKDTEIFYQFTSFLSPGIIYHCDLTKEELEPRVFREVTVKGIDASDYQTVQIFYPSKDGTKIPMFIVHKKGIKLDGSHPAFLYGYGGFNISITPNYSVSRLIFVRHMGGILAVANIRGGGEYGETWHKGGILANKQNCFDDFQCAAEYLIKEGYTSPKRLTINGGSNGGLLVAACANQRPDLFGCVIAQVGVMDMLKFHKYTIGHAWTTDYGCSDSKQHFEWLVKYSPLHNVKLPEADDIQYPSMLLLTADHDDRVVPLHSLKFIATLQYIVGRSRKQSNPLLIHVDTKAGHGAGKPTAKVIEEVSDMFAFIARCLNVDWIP
Kind of experiment: PEP (prolyl-endopeptidase) IC50 assay, Z-Gly-Pro-AMC fluorescence intensity.
Excerpt: as §1, §2
as §3, with “The eleven final compound concentrations were either 0.9 nM, 3 nM, 9 nM, 30 nM, 90 nM, 300 nM, 900 nM, 3 μM, 9 μM, 30 μM and 90 μM or 3 nM, 10 nM, 30 nM, 100 nM, 300 nM, 1 μM, 3 μM, 10 μM, 30 μM, 100 μM and 300 μM.” left out, “UK). […]” for “UK).”

[8] abbreviates: individual experiments 1-4, read-out: IC50 value.
Setting [9] is: mean of 4 experiments, read-out: Mean IC50 value ± SD.

“And” between values parts separate entries of the source, which are not always exact repeats. Identical values can stand only once. Like-named read-outs stand apart in the source and are kept apart here.

T4 sequence (Q6V1X1 17-898): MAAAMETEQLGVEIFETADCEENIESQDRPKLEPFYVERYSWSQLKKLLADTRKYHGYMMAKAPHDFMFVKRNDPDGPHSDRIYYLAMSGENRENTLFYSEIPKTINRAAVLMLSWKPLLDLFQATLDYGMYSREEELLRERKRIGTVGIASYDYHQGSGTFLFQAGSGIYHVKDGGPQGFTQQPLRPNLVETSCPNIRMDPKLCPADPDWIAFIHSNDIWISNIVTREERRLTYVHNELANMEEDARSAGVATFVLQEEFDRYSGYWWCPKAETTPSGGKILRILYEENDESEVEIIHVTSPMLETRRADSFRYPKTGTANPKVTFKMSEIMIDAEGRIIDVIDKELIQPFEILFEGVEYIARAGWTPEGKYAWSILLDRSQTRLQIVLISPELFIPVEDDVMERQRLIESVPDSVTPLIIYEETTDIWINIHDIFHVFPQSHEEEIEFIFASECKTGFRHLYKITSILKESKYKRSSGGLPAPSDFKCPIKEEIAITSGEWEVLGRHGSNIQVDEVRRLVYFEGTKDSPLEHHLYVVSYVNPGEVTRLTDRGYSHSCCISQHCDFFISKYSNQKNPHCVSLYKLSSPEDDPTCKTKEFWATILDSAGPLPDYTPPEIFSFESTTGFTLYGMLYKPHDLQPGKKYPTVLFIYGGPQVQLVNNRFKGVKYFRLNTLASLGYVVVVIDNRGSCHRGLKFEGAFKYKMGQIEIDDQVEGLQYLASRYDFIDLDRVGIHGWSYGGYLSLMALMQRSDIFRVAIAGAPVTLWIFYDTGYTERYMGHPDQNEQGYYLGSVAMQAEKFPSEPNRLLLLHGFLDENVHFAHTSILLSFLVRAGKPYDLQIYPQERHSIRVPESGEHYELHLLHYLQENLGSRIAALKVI
T2 sequence (P27487 39-766): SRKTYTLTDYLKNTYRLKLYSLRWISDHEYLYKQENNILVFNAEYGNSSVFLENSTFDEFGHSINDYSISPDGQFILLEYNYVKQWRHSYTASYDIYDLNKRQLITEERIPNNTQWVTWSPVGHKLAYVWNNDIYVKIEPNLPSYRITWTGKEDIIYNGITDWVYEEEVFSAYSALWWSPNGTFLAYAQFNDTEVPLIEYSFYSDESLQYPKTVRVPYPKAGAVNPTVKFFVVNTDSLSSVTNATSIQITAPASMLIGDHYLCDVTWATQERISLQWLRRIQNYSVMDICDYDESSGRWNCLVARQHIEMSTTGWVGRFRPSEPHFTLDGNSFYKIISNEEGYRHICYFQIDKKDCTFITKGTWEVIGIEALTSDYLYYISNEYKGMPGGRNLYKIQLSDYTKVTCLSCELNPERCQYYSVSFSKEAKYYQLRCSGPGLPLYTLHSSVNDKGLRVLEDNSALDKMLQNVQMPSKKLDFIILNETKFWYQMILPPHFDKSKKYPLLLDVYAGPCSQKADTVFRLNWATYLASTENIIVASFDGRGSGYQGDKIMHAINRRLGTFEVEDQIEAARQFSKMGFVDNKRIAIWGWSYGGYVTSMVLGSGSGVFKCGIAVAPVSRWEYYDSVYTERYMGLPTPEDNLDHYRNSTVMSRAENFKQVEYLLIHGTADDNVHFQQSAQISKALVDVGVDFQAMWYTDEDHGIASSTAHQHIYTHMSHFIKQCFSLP
T3 sequence (P27487 39-766 limits assumed): as the sequence (P27487 39-766) above
T5 sequence (Q86TI2 whole entry): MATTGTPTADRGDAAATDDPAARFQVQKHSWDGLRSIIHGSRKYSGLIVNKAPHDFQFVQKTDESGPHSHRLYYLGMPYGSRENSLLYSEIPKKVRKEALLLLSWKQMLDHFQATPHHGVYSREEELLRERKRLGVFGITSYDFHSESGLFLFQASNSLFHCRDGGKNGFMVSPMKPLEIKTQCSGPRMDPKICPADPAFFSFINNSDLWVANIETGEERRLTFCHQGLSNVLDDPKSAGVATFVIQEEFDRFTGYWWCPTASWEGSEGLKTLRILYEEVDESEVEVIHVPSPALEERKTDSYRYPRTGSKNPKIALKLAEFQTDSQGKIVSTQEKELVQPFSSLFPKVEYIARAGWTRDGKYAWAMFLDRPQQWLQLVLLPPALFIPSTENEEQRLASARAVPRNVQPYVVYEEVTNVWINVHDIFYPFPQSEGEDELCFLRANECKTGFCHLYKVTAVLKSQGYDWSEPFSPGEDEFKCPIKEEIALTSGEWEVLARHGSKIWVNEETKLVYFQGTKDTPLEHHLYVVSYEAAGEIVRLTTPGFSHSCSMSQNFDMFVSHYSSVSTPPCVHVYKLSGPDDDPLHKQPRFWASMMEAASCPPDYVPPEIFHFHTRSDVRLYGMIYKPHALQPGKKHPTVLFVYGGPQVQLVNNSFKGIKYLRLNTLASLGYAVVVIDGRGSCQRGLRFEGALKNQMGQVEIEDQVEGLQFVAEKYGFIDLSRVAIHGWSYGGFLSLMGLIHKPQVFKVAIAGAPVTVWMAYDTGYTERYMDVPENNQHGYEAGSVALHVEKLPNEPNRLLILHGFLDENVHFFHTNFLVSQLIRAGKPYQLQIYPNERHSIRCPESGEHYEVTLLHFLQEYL

Take `N#C[C@@H]1CCCN1C(=O)CNC12CC3CC(C1)CC(O[C@@H]1O[C@H](C(=O)O)[C@@H](O)[C@H](O)[C@H]1O)(C3)C2` [NVP-BQS867-NX-2]: the IC50 (as a rule, the concentration at which inhibition is half-maximal) in experiment [1] (setting [8]) was over 300 µM; in experiment [1] (setting [9]), over 90 µM; in experiment [2] (human DPP-IV, individual experiments 1-4, read-out: IC50 value), 4 nM and 6 nM and 7 nM and 5 nM; in experiment [2] (human DPP-IV, mean of 4 experiments, read-out: Mean IC50 value ± SD), 6 ± 1 nM; in experiment [3] (setting [8]), 3 nM and 4 nM; in experiment [3] (setting [9]), 4 ± 1 nM. The IC50 was 8.3 µM and 8 µM and 8.1 µM and 7.6 µM in experiment [4] (human DPP-8, individual experiments 1-4, read-out: IC50 value); 8 ± 0.3 µM in experiment [4] (human DPP-8, mean of 4 experiments, read-out: Mean IC50 value ± SD); 700 nM and 400 nM and 600 nM in experiment [5] (human DPP-9, individual experiments 1-4, read-out: IC50 value); 500 ± 200 nM in experiment [5] (human DPP-9, mean of 4 experiments, read-out: Mean IC50 value ± SD); 43 µM and 16 µM and 19 µM in experiment [6] (setting [8]); 24 ± 13 µM in experiment [6] (setting [9]). In addition, the IC50 in experiment [7] (setting [8]) was 52 µM and 15 µM and 18 µM and 14 µM; in experiment [7] (setting [9]) it was 25 ± 18 µM. In addition, the “potency at inhibiting the DPP-4 enzyme” value in experiment [2] (compared with vildagliptin) is “equally potent to vildagliptin”. For the same compound, the Hill coefficient (as a rule, a measure of the steepness of the concentration-response curve) in experiment [2] (human DPP-IV, individual experiments 1-4) was 0.7 and 0.9 and 1.3 and 1.1; in experiment [3] (individual experiments 1-4), 1.4 (2×) and 1.2 (2×); in experiment [4] (human DPP-8, individual experiments 1-4), 1.2 (3×) and 1.3; in experiment [5] (human DPP-9, individual experiments 1-4), 1.0 (2×) and 0.9 (2×); in experiment [6] (individual experiments 1-4), 1.3 and 0.8 (2×) and 0.7; in experiment [7] (individual experiments 1-4), 0.7 and 1.2 and 0.8 and 0.6. The “potency at inhibiting DPP-8 enzyme” value in experiment [4] (compared with vildagliptin) is recorded as “less potent”. The “potency at inhibiting DPP-9 enzyme” value in experiment [5] (compared with vildagliptin) is listed as “less potent”.

The record behind these values is patent publication US8252751B2, “Organic compounds” (Novartis AG, priority 2007, dated 2012).
